Marks after values point to notes of the source that are not given here.
Columns and labels:
Assay type in all cases: physicochemical
[1] = Fate of Form 2 slurried in 1,4-dioxane/water mixtures, XRPD; conditions: 1,4-dioxane
Experimental: In the presence of 10% water the Form 1 polymorph is evident in the slurry mixture within an hour at 25° C. […] This ternary system behaved similarly at 50° C. However, at the higher temperature of 65° C. the rate of turnover is increased such that Form 1 was generated after 3 hr. Consistent with the data obtained from the experiments described above, increasing the proportion of water to 80% in this system was sufficient to halt the polymorphic interconversion at 25° C., 50° C. and even at 65° C.

[2] = Fate of Form 2 slurried in single solvents, acetone, water and acetone/water mixtures, XRPD
Experimental: In order to determine the influence of water in determining the output from such conditioning experiments, the behaviour of the Form 2 polymorph was examined in nominally dry organic media and also in monophasic, aqueous mixtures with water miscible solvents.
The same result was also obtained when the conditioning medium was either neat acetone (Table 9, Entries 1 and 6) or water alone (Table 9, Entries 5 and 10). However, in acetone-water mixtures at 50° C. over 24 hr there was clear evidence that in two instances Form 2 had been transformed into Form 1 (Table 9, Entries 7 and 9).

[3] = Fate of Form 2 slurried in THF and THF/water mixtures, XRPD
Experimental: To investigate the generality of this unforeseen transformation a similar experiment was carried out in THF and in THF/water mixtures. […] At 25° C. those mixtures comprising 10% and 20% water returned Form 1 after 4 and 24 hours respectively (Table 10, Entries 2 and 3).

## Cc1cc(N2CCN(c3ccc(C(=O)Nc4ccc(F)cc4)cc3)CC2)ccc1OC[C@@H]1CO[C@@](Cn2cncn2)(c2ccc(F)cc2F)C1 [Form 2, 4-(4-(4-(((3R,5R)-5-((1H-1,2,4-triazol-1-yl)methyl)-5-(2,4-difluorophenyl)tetrahydrofuran-3-yl)methoxy)-3-methylphenyl)piperazin-1-yl)-N-(4-fluorophenyl)benzamide]
[1]; 10% water, 25 °C, 1 hr, trace of Form 2 remaining
  Polymorphic Form by XRPD: 1^†
[1]; 10% water, 25 °C, 3 hr, trace of Form 2 remaining
  Polymorphic Form by XRPD: 1^†
[1]; 10% water, 25 °C, 6 hr, trace of Form 2 remaining
  Polymorphic Form by XRPD: 1^†
[1]; 10% water, 25 °C, 24 hr, trace of Form 2 remaining
  Polymorphic Form by XRPD: 1^†
[1]; 10% water, 50 °C, 24 hr
  Polymorphic Form by XRPD: 1
[1]; 40% water, 25 °C, 1 hr
  Polymorphic Form by XRPD: 2
[1]; 40% water, 25 °C, 3 hr
  Polymorphic Form by XRPD: 2
[1]; 40% water, 25 °C, 6 hr
  Polymorphic Form by XRPD: 2
[1]; 40% water, 25 °C, 24 hr
  Polymorphic Form by XRPD: 1
[1]; 40% water, 50 °C, 1 hr
  Polymorphic Form by XRPD: 2
[1]; 40% water, 50 °C, 3 hr
  Polymorphic Form by XRPD: 2
[1]; 40% water, 50 °C, 6 hr
  Polymorphic Form by XRPD: 2
[1]; 40% water, 50 °C, 24 hr
  Polymorphic Form by XRPD: 1
[1]; 40% water, 65 °C, 1 hr
  Polymorphic Form by XRPD: 2
[1]; 40% water, 65 °C, 3 hr
  Polymorphic Form by XRPD: 1
[1]; 40% water, 65 °C, 6 hr
  Polymorphic Form by XRPD: 1
[1]; 40% water, 65 °C, 24 hr
  Polymorphic Form by XRPD: 1
[1]; 80% water, 25 °C, 1 hr
  Polymorphic Form by XRPD: 2
[1]; 80% water, 25 °C, 3 hr
  Polymorphic Form by XRPD: 2
[1]; 80% water, 25 °C, 6 hr
  Polymorphic Form by XRPD: 2
[1]; 80% water, 25 °C, 24 hr
  Polymorphic Form by XRPD: 2
[1]; 80% water, 50 °C, 1 hr
  Polymorphic Form by XRPD: 2
[1]; 80% water, 50 °C, 3 hr
  Polymorphic Form by XRPD: 2
[1]; 80% water, 50 °C, 6 hr
  Polymorphic Form by XRPD: 2
[1]; 80% water, 50 °C, 24 hr
  Polymorphic Form by XRPD: 2
[1]; 80% water, 65 °C, 1 hr
  Polymorphic Form by XRPD: 2
[1]; 80% water, 65 °C, 3 hr
  Polymorphic Form by XRPD: 2
[1]; 80% water, 65 °C, 6 hr
  Polymorphic Form by XRPD: 2
[1]; 80% water, 65 °C, 24 hr
  Polymorphic Form by XRPD: 2
[2]; acetone, water 0 vol %, 25 °C, 1 and 4 hr
  Polymorphic Form by XRPD: 2
[2]; acetone, water 0 vol %, 25 °C, 24 hr
  Polymorphic Form by XRPD: 2
[2]; acetone, water 0 vol %, 50 °C, 1 and 4 hr
  Polymorphic Form by XRPD: 2
[2]; acetone, water 0 vol %, 50 °C, 24 hr
  Polymorphic Form by XRPD: 2
[2]; acetone/water, water 10 vol %, 25 °C, 1 and 4 hr
  Polymorphic Form by XRPD: 2
[2]; acetone/water, water 10 vol %, 25 °C, 24 hr
  Polymorphic Form by XRPD: 2
[2]; acetone/water, water 10 vol %, 50 °C, 1 and 4 hr
  Polymorphic Form by XRPD: 2
[2]; acetone/water, water 10 vol %, 50 °C, 24 hr
  Polymorphic Form by XRPD: 1
[2]; acetone/water, water 20 vol %, 25 °C, 1 and 4 hr
  Polymorphic Form by XRPD: 2
[2]; acetone/water, water 20 vol %, 25 °C, 24 hr
  Polymorphic Form by XRPD: 2
[2]; acetone/water, water 20 vol %, 50 °C, 1 and 4 hr
  Polymorphic Form by XRPD: 2
[2]; acetone/water, water 20 vol %, 50 °C, 24 hr
  Polymorphic Form by XRPD: 2
[2]; acetone/water, water 40 vol %, 25 °C, 1 and 4 hr
  Polymorphic Form by XRPD: 2
[2]; acetone/water, water 40 vol %, 25 °C, 24 hr
  Polymorphic Form by XRPD: 2
[2]; acetone/water, water 40 vol %, 50 °C, 1 and 4 hr
  Polymorphic Form by XRPD: 2
[2]; acetone/water, water 40 vol %, 50 °C, 24 hr
  Polymorphic Form by XRPD: 1
[2]; heptane, TBME, toluene or cyclohexane as sole solvent, 25 or 50 °C, 24 hr
  change in crystal structure on suspension in sole solvent: no perceptible change in crystal structure
[2]; water 100 vol %, 25 °C, 1 and 4 hr
  Polymorphic Form by XRPD: 2
[2]; water 100 vol %, 25 °C, 24 hr
  Polymorphic Form by XRPD: 2
[2]; water 100 vol %, 50 °C, 1 and 4 hr
  Polymorphic Form by XRPD: 2
[2]; water 100 vol %, 50 °C, 24 hr
  Polymorphic Form by XRPD: 2
[3]; THF, water 0 vol %, 25 °C, 1 hr
  Polymorphic Form by XRPD: 2
[3]; THF, water 0 vol %, 25 °C, 4 hr
  Polymorphic Form by XRPD: 2
[3]; THF, water 0 vol %, 50 °C, 1 hr
  Polymorphic Form by XRPD: 2
[3]; THF, water 0 vol %, 50 °C, 4 hr
  Polymorphic Form by XRPD: 2
[3]; THF/water, water 10 vol %, 25 °C, 1 hr
  Polymorphic Form by XRPD: 2
[3]; THF/water, water 10 vol %, 25 °C, 4 hr
  Polymorphic Form by XRPD: 1
[3]; THF/water, water 10 vol %, 25 °C, 24 hr
  Polymorphic Form by XRPD: 1
[3]; THF/water, water 10 vol %, 50 °C, 1 hr
  Polymorphic Form by XRPD: 1
[3]; THF/water, water 10 vol %, 50 °C, 4 hr
  Polymorphic Form by XRPD: 1
[3]; THF/water, water 10 vol %, 50 °C, 24 hr
  Polymorphic Form by XRPD: 1
[3]; THF/water, water 20 vol %, 25 °C, 1 hr
  Polymorphic Form by XRPD: 2
[3]; THF/water, water 20 vol %, 25 °C, 4 hr
  Polymorphic Form by XRPD: 2
[3]; THF/water, water 20 vol %, 25 °C, 24 hr
  Polymorphic Form by XRPD: 1
[3]; THF/water, water 20 vol %, 50 °C, 1 hr
  Polymorphic Form by XRPD: 1
[3]; THF/water, water 20 vol %, 50 °C, 4 hr
  Polymorphic Form by XRPD: 1
[3]; THF/water, water 20 vol %, 50 °C, 24 hr
  Polymorphic Form by XRPD: 1
[3]; THF/water, water 40 vol %, 25 °C, 1 hr
  Polymorphic Form by XRPD: 2
[3]; THF/water, water 40 vol %, 25 °C, 4 hr
  Polymorphic Form by XRPD: 2
[3]; THF/water, water 40 vol %, 25 °C, 24 hr
  Polymorphic Form by XRPD: 2
[3]; THF/water, water 40 vol %, 50 °C, 1 hr
  Polymorphic Form by XRPD: 1
[3]; THF/water, water 40 vol %, 50 °C, 4 hr
  Polymorphic Form by XRPD: 1
[3]; THF/water, water 40 vol %, 50 °C, 24 hr
  Polymorphic Form by XRPD: 1

Reference: patent US12491182B2, “Polymorphs of triazole antifungal compound PC945” (Pulmocide Limited, priority 2019, dated 2025)
